# From patent publication US20220354858A1, “METHOD FOR TREATING MALIGNANT TUMOR” (TAIHO PHARMACEUTICAL CO., LTD., priority 2019, published 2022)
# Where “and” joins values, the source holds several entries; their conditions need not be identical. Identical values can stand only once. Like-named read-outs stand apart in the source and are kept apart here.
# What was measured:
# [1] = test system: Human ovarian cancer cell line OVCAR-3; assay: Administration schedule study in nude mouse model subcutaneously transplanted with OVCAR-3; format: in vivo; settings: OVCAR-3 xenograft, FIG. 1
# Protocol: Human ovarian cancer cell line OVCAR-3 (American Type Culture Collection (ATCC)) that had been subcutaneously subcultured in mice was cut to about 2 mm squares and subcutaneously transplanted into 5-week-old […] BALB/cAJcl-nu/nu mice (CLEA Japan, Inc.) using a transplantation needle.
# The grouping day was defined as Day 1.
# The tumor volume (TV) was calculated using the following formula.
# TV=(major axis×minor axis×minor axis)×½
# Requisite amounts of Compound 1 were weighed, and each was individually suspended in a 0.5% (w/v) hydroxypropyl methylcellulose (HPMC) aqueous solution to prepare administration liquids having appropriate concentrations. For the control group, a 0.5% (w/v) HPMC aqueous solution was used as an administration liquid.
# The administration amount was 10 mL/kg body weight, and each administration liquid was individually injected into the stomach of the mice with a feeding needle.
# Twice a week, the major axis and the minor axis of each tumor were measured from the skin with an electronic caliper, and the following items were further calculated. These were used as indexes to confirm the presence or absence of an antitumor effect.
# Tumor volume (TVn)=(major axis×minor axis×minor axis)×½ […]
# On the same days as the tumor volume measurement, the body weight (BW) of the mice was measured with an electronic balance, and the body weight change (BWC) was further calculated. […]
# [2] = Dose escalation (3+3 design) to determine recommend dose and administration schedule in humans; format: in vivo, human; settings: oral once a day, patients with advanced solid cancers
# Protocol: This test was performed to determine the recommend dose and administration schedule of Compound 1 and investigate the safety profile of Compound 1 for patients with advanced solid cancers for which standard treatment options are not available.
# In this Example, first, the recommend doses for the schedule of administration for 7 consecutive days and the schedule of 4-administration with 3-withdrawal were determined. In the schedule of administration of Compound 1 for 7 consecutive days, Compound 1 was orally administered consecutively once a day for three courses for a total duration of 21 days, with one course taken as 7 days. In 4-administration with 3-withdrawal, Compound 1 was orally administered once a day on day 1 to day 4, day 8 to day 11, and day 15 to day 18 of three courses for a total duration of 21 days, with one course taken as 7 days.
# In the schedule of administration for 7 consecutive days, the administration amount taken at one time started at 4 mg/body/day. […]
# In the present invention, the 3+3 design was performed in the following manner. […] Whether the level proceeds is determined by the investigator and the sponsor based on comprehensive considerations of not only the information on DLTs, but also all related toxicities regardless of whether they are DLTs, and drugs used in combination/combination therapy from a clinical perspective. […]
# [3] = Pharmacokinetics of Compound 1 in humans; format: in vivo, human; settings: for Blood concentration remaining before administration: 24 mg/body/day, 4-administration with 3-withdrawal
# Protocol: The pharmacokinetics of the recommend doses of Compound 1 in administration for 7 consecutive days and 4-administration with 3-withdrawal were measured in patients with advanced solid cancers for which standard treatment options were not available.
# In the administration for 7 consecutive days, Compound 1 was orally administered once a day at a dose of 16 mg/body/day for three courses for a total duration of 21 days, with one course taken as 7 days. Blood samples were taken over time on day 1 and day 21, which was the last administration day of the three courses, to measure the pharmacokinetics.
# In the 4-administration with 3-withdrawal, Compound 1 was orally administered once a day at a dose of 24 mg/body/day for three courses for a total duration of 21 days, with one course taken as 7 days. Blood samples were taken over time on day 1 and day 18, which was the last administration day of the three courses, to measure the pharmacokinetics. Blood samples were also taken immediately before administration on day 3, day 4, and day 8.
# advanced solid cancers = assay: Optimal dosage regimen study in humans: safety (non-prescribed withdrawal) and efficacy (RECIST) profiles; format: in vivo, human; settings: for Non-prescribed withdrawal: N = 6
# Protocol: With regard to Example 3, the optimal dosage regimen of Compound 1 was studied. The safety profiles and efficacy profiles when the recommend doses were administered in the schedule of administration for 7 consecutive days and the schedule of 4-administration with 3-withdrawal were compared in patients with advanced solid cancers for which standard treatment options were not available.
# For the safety profiles, non-prescribed withdrawal periods were compared. The non-prescribed withdrawal period is a comprehensive index of safety profiles.
# In this Example, dose modification criteria in the case of the occurrence of a toxicity for which a causal relationship to the drug cannot be denied were shown. Dose modification criteria for non-hematologic toxicities, dose modification criteria for hematologic toxicities, and dose modification criteria for other toxicities were set. When any of these criteria was met, a prescribed day to perform drug administration was changed to a day on which the drug is not administered, i.e., a non-prescribed withdrawal period.
# The dose modification criteria for non-hematologic toxicities for which a causal relationship to the drug cannot be denied were set as follows.
# With regard to fasting blood glucose, if symptomatic grade 4 hyperglycemia or grade 3 or higher hyperglycemia for more than 7 days develops, the administration is discontinued (non-prescribed withdrawal). If the condition recovers to grade 1 or grade 0, the administration can be resumed. When the administration is resumed, the administration amount is reduced by one level from the original administration amount. However, for adverse events (e.g., fatigue and skin dryness) that are judged to be less likely to become serious or worsen to life-threatening events, the administration of the drug can be continued at the same administration amount without dose reduction or administration discontinuation, regardless of the grades of the events.
# In the case of DLTs or grade 3 or higher non-hematologic toxicities as other toxicities, the administration is discontinued (non-prescribed withdrawal). If the condition recovers to grade 1 or less or to the baseline, the administration can be resumed. As grade 3 or higher non-hematologic toxicities, grade 3 nausea and/or vomiting that could be treated by intensive antiemetic therapy, grade 3 diarrhea in which an antidiarrheal was effective, and grade 3 skin toxicity that could be treated by intensive skin treatment with, for example, a topical steroid and/or an oral corticosteroid are excluded. When the administration is resumed, the administration amount is reduced by one level from the original administration amount. However, for adverse events (e.g., fatigue and skin dryness) that are judged to be less likely to become serious or worsen to life-threatening events, the administration of the drug can be continued at the same administration amount without dose reduction or administration discontinuation, regardless of the grades of the events.
# The dose modification criteria for hematologic toxicities for which a causal relationship to the drug cannot be denied were set as follows.
# If the neutrophil count is less than 500/mm^3, the administration is discontinued (non-prescribed withdrawal). If the neutrophil count recovers to 1500/mm^3 or more, the administration can be resumed. […] In the case of asymptomatic neutropenia lasting more than 7 days or neutropenia with a symptom (neutropenia with an infectious disease or fever), the administration amount is reduced by one level from the original administration amount.
# If the platelet count is less than 25000/mm^3, the administration is discontinued (non-prescribed withdrawal). If the platelet count recovers to 75000/mm^3 or more, the administration can be resumed. When the administration is resumed, the administration amount is reduced by one level from the original administration amount. […]
# [4] = mice; cited from earlier work
# [5] = humans; cited from earlier work
# [6] = 4-administration with 3-withdrawal, 24 mg/body/day
# [7] = administration for 7 consecutive days, 16 mg/body/day
Compound,Body weight change ([1]; each Compound 1 administration group),"Antitumor effect (RTV, T/C) ([1]; oral 16 or 24 mg/kg/day 7 consecutive days or 24 mg/kg/day 4-administration with 3-withdrawal, Days 1-21)",Maximum tolerable administration amount (recommend dose) ([2]; 4-administration with 3-withdrawal),Maximum tolerable administration amount (recommend dose) ([2]; administration for 7 consecutive days),Accumulation (blood drug concentrations day 21 or day 18 versus day 1) ([3]; 16 mg/body/day 7 consecutive days and 24 mg/body/day 4-administration with 3-withdrawal),Blood concentration remaining before administration ([3]; day 3),Blood concentration remaining before administration ([3]; day 4),"Half-life ([3]; human, blood, humans, oral)",Non-prescribed withdrawal period (advanced solid cancers; [6]),Non-prescribed withdrawal (advanced solid cancers; [6]),"RECIST evaluation (advanced solid cancers; 4-administration with 3-withdrawal, 24 mg/body/day, six patients)",RECIST evaluation (advanced solid cancers; [7]),Non-prescribed withdrawal (advanced solid cancers; [7]),"Non-prescribed withdrawal period (advanced solid cancers; administration for 7 consecutive days, 16 mg/body/day, average)","Tumor shrinkage effect (waterfall plots), 4-administration with 3-withdrawal versus 7 consecutive days (advanced solid cancers; recommend doses, FIG. 4)",Half-life [4],Half-life [5]
"C[C@]1(O)C[C@@](N)(c2ccc(-c3nc4n(c3-c3ccccc3)COc3ccncc3-4)cc2)C1 [Compound 1, trans-3-amino-1-methyl-3-(4-(3-phenyl-5H-imidazo[1,2-c]pyrido[3,4-e][1,3]oxazin-2-yl)phenyl)cyclobutanol]",without serious weight loss,excellent antitumor effect,24 mg/body/day,16 mg/body/day,has accumulation properties,25.7 ng/mL,35.7 ng/mL,~2940 min,2 days and 2.0 days,one of six patients and 1/6,two of the six patients had stable disease (SD),all of the patients had progressive disease (PD),three of six patients and 3/6,3.7 days,superior,about 2.3 hours,
AZD5363,,,,,,,,,,,,,,,,,about 6 hours
